We go through 9 molecules from patent US4109011A, “Insecticide carbamates of N-(polychloroallyl)-amino-phenols” (priority 1975, dated 1978).

Read-outs that look alike come from different tables or passages of the source.

Common to all, as to format: in vivo
Experiment [1] deals with Macrosiphum Euphorbiae. The experiment can be described thus: Biological activity on Macrosiphum euphorbiae (aphides), potato seedlings sprayed with aqueous dispersion. The method, then:
Biological Activity on Macrosiphum Euphorbiae (Aphides)
Potato seedlings, cultivated in pots, were infested with adult aphide females and, after a few hours, were sprayed with an aqueous dispersion of the compounds listed in Table 6. The mortality percentage was determined 24 hours after the treatment (on control non-treated seedlings, the mortality percentage was 0).
(§1) To show the variation in activity from one compound to another, depending on the species used, the activities of compounds according to this invention were investigated at different concentrations, expressed as percent of active principle, on various infesting species. The mortality percentage was computed in the same way as in the preceding examples.

Experiment [2] deals with Spodoptera Littoralis. In words: Biological activity on Spodoptera littoralis larvae, sprayed cut tobacco leaves.
Text: Biological Activity on Spodoptera Littoralis (Lepidoptera)
Cut tobacco leaves were sprayed with a 0.1% aqueous dispersion of compounds according to the present invention, shown in Table 12. After drying, the leaves were infested with 5-day old lepidopter larvae. The mortality percentage of the control was zero.
as §1

The subject of experiment [3] is Pieris Brassicae. In words: Persistence of insecticidal activity in the field, Pieris brassicae on cauliflower plants. The conditions noted are these: 0.5 percent; for mortality at 0.5 %: read-out: Mortality Percent of Pieris Brassicae Larvae. From the text:
The persistence of insecticidal activity in the field using the insect Pieris brassicae was examined as follows:
Cauliflower plants grown under natural conditions in the field were sprinkled with an aqueous suspension of compounds according to this invention identified hereinabove as M 7361 and M 8157. For purposes of comparison, cauliflower plants were sprinkled with an aqueous suspension of a compound according to U.S. Pat. No. 3,819,678, identified hereinabove as M 7481.
After the respective time periods shown in Table 15, leaves of the sprinkled plants were picked and brought to the laboratory where they were infested with 10-day old larvae of Pieris brassicae and then kept under observation. The percent of mortality of the insects was determined 48 hours after infestation in all cases. The percent mortality of the control, unsprinkled cauliflower leaves, was zero.

Experiment [4] concerns Leptinotarsa decemlineata. The experiment can be described thus: Persistence of insecticidal activity in the field, Leptinotarsa decemlineata on potato plants. The conditions noted are these: 0.2 percent. The source says: The persistence of insecticidal activity in the field using the insect Leptinotarsa decemlineata was examined as follows:
Potato plants grown in the field under natural conditions were sprinkled with an aqueous suspension of compound M 7361 which is according to this invention and identified hereinabove. For purposes of comparison, similarly grown potato plants were sprinkled with an aqueous suspension of the compounds M 7488 and M 7481, respectively, both according to U.S. Pat. No. 3,819,678 and identified above.
After the time periods shown in Table 17, leaves of the sprinkled plants were picked and brought to the laboratory where they were infested with 10 day-old larvae of Leptinotarsa decemlineata and then kept under observation. After 48 hours, the percent of mortality of the insects was determined. The mortality percent of the control unsprinkled leaves was zero.

In experiment [5] the test system is Pieris Brassicae. In words: Biological activity on Pieris brassicae larvae, sprayed cut cauliflower leaves.
Text: Biological Activity on Pieris Brassicae (Lepidoptera)
Cut leaves of cauliflower were sprayed with an aqueous dispersion of compound according to this invention at a 0.1% concentration. After drying, they were infested with 5-day old larvae. The mortality percentage of the control, untreated leaves, was zero.
as §1

In experiment [6] the test system is Spodoptera Littoralis. In words: Persistence of insecticidal activity in the field, Spodoptera littoralis on Ricinus plants. The conditions noted are these: one percent, read-out: Mortality Percent of Spodoptera Littoralis Larvae. The source says: The persistence of insecticidal activity in the field using the insect Spodoptera littoralis was examined as follows:
Ricinus plants grown in the field under natural conditions were sprinkled with an aqueous suspension of the insecticidal compounds according to this invention designated hereinabove as M 7361 and M 8157. For purposes of comparison, an aqueous suspension of each of M 7481 and M 7488, according to U.S. Pat. No. 3,819,678 and identified above, was sprinkled on similarly grown Ricinus plants.
After the time periods shown in Table 16, leaves of the sprinkled plants were picked and brought to the laboratory where they were infested with 10-day old larvae of Spodoptera littoralis and then kept under observation. The mortality percent of the control unsprinkled leaves was zero.

In experiment [7] the test system is Leptinotarsa Decimlineata. The experiment can be described thus: Biological activity on Leptinotarsa decemlineata larvae, sprayed potato seedlings.
Text: Biological Activity on Leptinotarsa Decimlineata Coleoptera
Potato seedlings cultivated in pots were infested with 4-day old larvae and sprayed with an aqueous dispersion of the compounds according to this invention and Aminocarb as a comparison at doses of […]; respectively. The mortality percentage of the control, untreated seedlings, was zero.
as §1

For experiment [8], the system named is Tetranychus Urticae. The experiment can be described thus: Biological activity on Tetranychus urticae eggs, bean leaf discs.
Text: Biological Activity on Tetranychus Urticae (Acari)
Small discs of bean leaves were infested with acarus eggs and successively treated by spraying with an aqueous dispersion of a compound of this invention and Aminocarb as a comparison, at concentrations of 0.1 and 0.01%. The mortality percentage of the control, untreated discs, was zero.
as §1

In experiment [9] the test system is Culex Pipiens. The experiment can be described thus: Biological activity on Culex pipiens (mosquito larvae in aqueous dispersion).
Text: Biological Activity on Culex Pipiens (Diptera)
Mosquito larvae of the third and fourth ages were introduced into glass pots containing an aqueous dispersion of the compounds shown at 2 ppm and 0.2 ppm.
as §1

The subject of experiment [10] is Musca Domestica. In words: Biological activity on Musca domestica, topical application to adults. The conditions noted are these: 24 h, read-out: Percent of Mortality. The method, then:
Biological Activity on Musca Domestica (Diptera)
Four day old adults were treated by topical application through a microsyringe with 1 mm^3 of an acetonic solution of the compounds shown in such concentrations that they received doses of 5γ/insect; 2γ/insect; 0.5γ/insect of active principle. The mortality percentage 24 hours after the treatment is reported in Table 8 (mortality of insects treated with 1 mm^3 of acetone = 0).

Experiment [11] concerns Leptinotarsa Decimlineata. The experiment can be described thus: Biological activity on Leptinotarsa decemlineata larvae, sprayed potato seedlings. The conditions noted are these: read-out: Percent of Mortality.
The mark [12] stands for this setting: read-out: % mort. Macrosiphum Euphorbiae.
The mark [13] stands for this setting: 120 h, 5 days after field treatment.
Setting [14] is: 216 h, 9 days after field treatment.
The mark [15] stands for this setting: 336 h, 14 days after field treatment.
The mark [16] stands for this setting: 408 h, 17 days after field treatment.
Setting [17] is: 528 h, 22 days after field treatment.
Setting [18] is: 96 h, 4 days after field treatment.
[19] abbreviates: 168 h, 7 days after field treatment.
Setting [20] is: 264 h, 11 days after field treatment.
Where [21] appears, read: 432 h, 18 days after field treatment.
Setting [22] is: 600 h, 25 days after field treatment.
[23] abbreviates: read-out: % mort. Leptinot. Decemlin.
[24] abbreviates: 0.1 percent, larvae, 48 hours, read-out: Percent of Mortality.
Setting [25] is: 0.1 percent, larvae, read-out: Percent of Mortality.
Setting [26] is: foliar, read-out: Percent of Mortality.

As to `CNC(=O)Oc1cc(C)c(NCC=C(Cl)Cl)c(C)c1` [M 7361], the mortality at 0.01 % in experiment [1] (setting [12]) worked out at 17%; in [2] (48 h, Table 14, 0.01% a.p., read-out: % mort. Spodopt. Littoralis), 7%; in experiment [5] (Table 14, 0.01% a.p., read-out: % mort. Pieris Brassicae), 15%; in experiment [7] (setting [23]) it was 52%. Also, the mortality at 0.1 % came to 81% in [1] (setting [12]); 72% in experiment [2] (48 h, Table 14, 0.1% a.p., read-out: % mort. Spodopt. Littoralis); 97% in experiment [5] (Table 14, 0.1% a.p., read-out: % mort. Pieris Brassicae); 97% in experiment [7] (setting [23]). For the same molecule, the mortality at 1 % amounted to 100% in experiment [1] (setting [12]); 100% in experiment [2] (48 h, Table 14, 1% a.p., read-out: % mort. Spodopt. Littoralis); 100% in [5] (Table 14, 1% a.p., read-out: % mort. Pieris Brassicae); 100% in [6] (setting [13]); 100% in experiment [6] (setting [20]); 100% in experiment [6] (setting [15]). Further, the mortality at 1 % in [6] (setting [21]) was found to be 100%; in experiment [6] (setting [22]), 100%; in experiment [6] (2 hours after field treatment) it was 100%; in [7] (setting [23]), 100%; in experiment [8] (topical, read-out: % mort. Tetran. Urt. eggs) it was 13%. The “period for which insecticidal activity is fully retained in the field” value in experiment [3] is reported as “at least 22 days”. The mortality at 0.5 % in experiment [3] (2 hours after field treatment), in experiment [3] (setting [13]), in experiment [3] (setting [14]), in experiment [3] (setting [15]), in [3] (setting [16]) and in experiment [3] (setting [17]) was 100% in each case. Besides, the mortality at 0.2 % was 100% in [4] (2 hours after field treatment); 100% in [4] (setting [18]); 100% in experiment [4] (setting [19]); 100% in experiment [4] (setting [20]); 100% in experiment [4] (setting [21]); 73% in experiment [4] (setting [22]). For the same molecule, the mortality at 2 ppm in experiment [9] (read-out: % mort. Culex Pipiens) worked out at 40%.
For the molecule `CNC(=O)Oc1cc(C)c(N(C)C)c(C)c1` [Zectran, reference compound], in [10], the mortality at 0.5 µg/insect came to 0% and the mortality at 2 µg/insect amounted to 60%.
On to `CNC(=O)Oc1cc(C)c(N(C)CC=C(Cl)Cl)c(C)c1` [M 7481, reference compound], for which the “time after which totally ineffective in the field” value in experiment [3] was determined as 14 days. For the same molecule, in experiment [3], the “time at which activity begins to be lost in the field” value fell in the range of 2 to 5 days. Also, the mortality at 0.5 % in [3] (2 hours after field treatment) is 100%; in experiment [3] (setting [13]), 55%; in [3] (setting [14]), 30%; in experiment [3] (setting [15]), 0%; in experiment [3] (setting [16]), 0%; in [3] (setting [17]), 0%. The mortality at 0.2 % turned out to be 100% in [4] (2 hours after field treatment); 60% in experiment [4] (setting [18]); 20% in [4] (setting [19]); 0% in experiment [4] (setting [20]); 0% in [4] (setting [21]); 0% in [4] (setting [22]). In addition, the mortality at 1 % in [6] (setting [13]) was 100%; in experiment [6] (setting [20]), 77%; in experiment [6] (setting [15]) it was 60%; in [6] (setting [21]), 47%; in experiment [6] (setting [22]) it was 40%; in [6] (2 hours after field treatment) it was 100%.
Consider `CNC(=O)Oc1ccc(NCC(Cl)=C(Cl)Cl)c(C)c1` [M 6737], for which the mortality at 0.1 % in [2] (setting [24]), in experiment [5] (setting [25]) and in experiment [8] (setting [26]) was 100% in each case. In experiment [8] (setting [26]), the mortality at 0.01 % was 80%.
Consider `CNC(=O)Oc1ccc(NCC=C(Cl)Cl)c(C)c1` [M 6432], for which the mortality at 0.1 % in experiment [2] (setting [24]) and in experiment [5] (setting [25]) was 100% throughout.
In the case of `CNC(=O)Oc1cc(C)c(N(CC=C(Cl)Cl)CC=C(Cl)Cl)c(C)c1` [M 7488, reference compound], the mortality at 0.2 % in experiment [4] (2 hours after field treatment) turned out to be 100%; in [4] (setting [18]), 70%; in experiment [4] (setting [19]), 20%; in [4] (setting [20]) it was 10%; in [4] (setting [21]), 0%; in [4] (setting [22]) it was 0%. Further, the mortality at 1 % in experiment [6] (setting [13]) is 92%; in [6] (setting [20]) it was 47%; in [6] (setting [15]), 38%; in [6] (setting [21]) it was 22%; in experiment [6] (setting [22]), 0%; in experiment [6] (2 hours after field treatment), 100%.
For `CNC(=O)Oc1cccc(NCC(Cl)=C(Cl)Cl)c1` [M 6740], in [7] (read-out: Percent of Mortality), the mortality at 0.1 % turned out to be 100%. In experiment [9] (24 h, read-out: Percent of Mortality), the mortality at 2 ppm stood at 100%. Also, the mortality at 0.01 % in experiment [11] stood at 100%.
As to `CNC(=O)Oc1cc(C)c(NCC(Cl)=C(Cl)Cl)c(C)c1` [M 8157], the “period for which insecticidal activity is fully retained in the field” value in experiment [3] is recorded as “at least 22 days”. Further, the mortality at 0.5 % in experiment [3] (2 hours after field treatment), in experiment [3] (setting [13]), in [3] (setting [14]), in experiment [3] (setting [15]), in [3] (setting [16]) and in experiment [3] (setting [17]) was 100% each time. The mortality at 1 % in [6] (setting [13]), in experiment [6] (setting [20]), in experiment [6] (setting [15]), in experiment [6] (setting [21]), in experiment [6] (setting [22]) and in experiment [6] (2 hours after field treatment) was 100% each time.
On to `CNC(=O)Oc1cc(C)ccc1NCC(Cl)=C(Cl)Cl` [M 6773, N-methylcarbamate of 3-methyl-6-(2,3,3-trichloroallylamino)-phenol], for which the mortality at 0.01 % in experiment [1] (24 h, read-out: Mortality Percent) worked out at 75%.
